Reference: ChEMBL document CHEMBL4190323, “New racemic annulated pyrazolo[1,2-b]phthalazines as tacrine-like AChE inhibitors with potential use in Alzheimer's disease” (Eur J Med Chem, 2017)
The source made the active and inactive calls. No cut-off for these calls is given here.

Tests used:
Acetylcholinesterase [1] = molecular target: T1, Acetylcholinesterase (Electrophorus electricus, UniProt O42275); experiment: Inhibition of electric eel AChE using acetylthiocholine iodide as substrate preincubated for 10 mins followed by substrate addition measured for 6 mins by Ellman's method
T1 sequence (O42275 whole entry): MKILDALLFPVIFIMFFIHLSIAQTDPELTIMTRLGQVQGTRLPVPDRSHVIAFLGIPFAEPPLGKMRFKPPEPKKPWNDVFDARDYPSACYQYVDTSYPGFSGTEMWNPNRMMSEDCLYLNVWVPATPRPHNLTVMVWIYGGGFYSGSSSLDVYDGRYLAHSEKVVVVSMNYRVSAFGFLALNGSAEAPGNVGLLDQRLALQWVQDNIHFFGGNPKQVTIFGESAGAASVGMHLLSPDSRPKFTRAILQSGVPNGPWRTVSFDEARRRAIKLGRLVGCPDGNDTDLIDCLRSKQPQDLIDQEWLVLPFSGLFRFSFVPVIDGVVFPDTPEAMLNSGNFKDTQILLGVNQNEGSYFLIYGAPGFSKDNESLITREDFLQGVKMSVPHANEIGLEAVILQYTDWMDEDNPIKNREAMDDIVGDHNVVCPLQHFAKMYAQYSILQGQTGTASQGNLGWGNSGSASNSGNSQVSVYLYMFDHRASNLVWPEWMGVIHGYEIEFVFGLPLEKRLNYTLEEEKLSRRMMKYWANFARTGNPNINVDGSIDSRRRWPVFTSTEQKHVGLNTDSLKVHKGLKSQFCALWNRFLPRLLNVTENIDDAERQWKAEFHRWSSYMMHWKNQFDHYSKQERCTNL

Cholinesterase = Cholinesterase (Equus caballus, UniProt P81908); experiment: Inhibition of equine serum BuChE using butyrylthiocholine iodide as substrate preincubated for 10 mins followed by substrate addition measured for 6 mins by Ellman's method
Sequence of Cholinesterase (P81908 whole entry): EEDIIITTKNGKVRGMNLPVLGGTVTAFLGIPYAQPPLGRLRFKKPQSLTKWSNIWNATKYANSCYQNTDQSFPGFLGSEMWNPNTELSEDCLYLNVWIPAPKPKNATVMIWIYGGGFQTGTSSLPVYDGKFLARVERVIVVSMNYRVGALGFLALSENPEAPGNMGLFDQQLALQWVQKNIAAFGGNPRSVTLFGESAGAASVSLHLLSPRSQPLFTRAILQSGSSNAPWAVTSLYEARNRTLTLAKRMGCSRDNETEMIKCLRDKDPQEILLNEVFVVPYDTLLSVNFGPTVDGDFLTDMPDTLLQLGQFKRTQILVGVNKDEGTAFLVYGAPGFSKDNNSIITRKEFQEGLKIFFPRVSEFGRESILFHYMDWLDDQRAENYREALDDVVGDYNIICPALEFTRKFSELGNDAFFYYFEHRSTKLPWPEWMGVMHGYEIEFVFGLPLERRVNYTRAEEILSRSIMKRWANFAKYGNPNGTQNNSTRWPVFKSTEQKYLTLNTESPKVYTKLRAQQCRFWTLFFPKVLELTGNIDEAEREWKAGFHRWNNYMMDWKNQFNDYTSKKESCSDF

in vitro [2] = conditions: human, HepG2 cells
Description: Cytotoxicity against human HepG2 cells assessed as cell viability at 1 uM after 24 hrs by MTT assay relative to control

in vitro [3] = conditions: human, HepG2 cells; remark: listed apart in the source
Description: Cytotoxicity against human HepG2 cells assessed as cell viability at 5 uM after 24 hrs by MTT assay relative to control

in vitro [4] = conditions: human, HepG2 cells; remark: listed apart in the source
Description: Cytotoxicity against human HepG2 cells assessed as cell viability at 10 uM after 24 hrs by MTT assay relative to control

in vitro [5] = conditions: human, HepG2 cells; remark: listed apart in the source
Description: Cytotoxicity against human HepG2 cells assessed as cell viability at 25 uM after 24 hrs by MTT assay relative to control

in vitro [6] = conditions: human, HepG2 cells; remark: listed apart in the source
Description: Cytotoxicity against human HepG2 cells assessed as cell viability at 50 uM after 24 hrs by MTT assay relative to control

in vitro [7] = conditions: human, HepG2 cells; remark: listed apart in the source
Description: Cytotoxicity against human HepG2 cells assessed as cell viability at 100 uM after 24 hrs by MTT assay relative to control

in vitro [8] = conditions: human, HepG2 cells; remark: listed apart in the source
Description: Cytotoxicity against human HepG2 cells assessed as cell viability at 300 uM after 24 hrs by MTT assay relative to control

[9] = molecular target: Acetylcholinesterase (Electrophorus electricus) (UniProt O42275); experiment: Potency index, ratio of IC50 for tacrine to IC50 for test compound for electric eel AChE
Sequence of Acetylcholinesterase (Electrophorus electricus) (O42275 24-633 limits assumed): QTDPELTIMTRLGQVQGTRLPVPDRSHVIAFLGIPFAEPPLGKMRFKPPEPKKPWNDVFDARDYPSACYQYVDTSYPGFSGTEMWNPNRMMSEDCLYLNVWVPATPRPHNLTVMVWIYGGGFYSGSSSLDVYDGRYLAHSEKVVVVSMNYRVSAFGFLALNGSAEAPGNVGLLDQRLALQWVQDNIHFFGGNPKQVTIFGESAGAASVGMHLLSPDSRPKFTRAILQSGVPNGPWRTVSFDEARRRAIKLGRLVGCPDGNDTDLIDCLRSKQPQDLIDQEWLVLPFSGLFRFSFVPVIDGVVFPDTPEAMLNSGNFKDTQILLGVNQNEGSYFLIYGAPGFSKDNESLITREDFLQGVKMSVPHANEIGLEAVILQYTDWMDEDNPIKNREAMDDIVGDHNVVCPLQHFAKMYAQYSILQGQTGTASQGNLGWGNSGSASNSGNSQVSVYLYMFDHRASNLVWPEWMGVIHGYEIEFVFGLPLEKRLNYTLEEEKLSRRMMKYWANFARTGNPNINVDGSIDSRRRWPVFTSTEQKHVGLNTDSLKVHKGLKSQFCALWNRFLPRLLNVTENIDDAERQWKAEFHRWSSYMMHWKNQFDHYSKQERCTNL

Acetylcholinesterase [10] = molecular target: T1, Acetylcholinesterase; experiment: Mixed-type inhibition of electric eel AChE using acetylthiocholine iodide as substrate preincubated for 10 mins followed by substrate addition measured for 6 mins by Lineweaver-Burk plot analysis
PC-12 [11] = experiment: Neuroprotective activity in rat PC12 cells assessed as decrease in H2O2-mediated apoptosis at 100 uM preincubated for 3 hrs followed by H2O2 challenge measured after 24 hrs by MTT assay; assay type: functional, cell-based
PC-12 [12] = experiment: Neuroprotective activity in rat PC12 cells assessed as decrease in H2O2 mediated apoptosis at 10 uM preincubated for 3 hrs followed by H2O2 challenge measured after 24 hrs by MTT assay; assay type: functional, cell-based
PC-12 [13] = experiment: Neuroprotective activity in rat PC12 cells assessed as decrease in H2O2 mediated apoptosis at 1 uM preincubated for 3 hrs followed by H2O2 challenge measured after 24 hrs by MTT assay; assay type: functional, cell-based
PC-12 [14] = experiment: Neurotoxicity in rat PC12 cells assessed as reduction in cell viability at 1 to 10 uM after 24 hrs by MTT assay; assay type: toxicity, cell-based; conditions: pc-12, 24 h

Compound	IC50 (Acetylcholinesterase [1]) [nM]	IC50 (Cholinesterase) [nM]	also measured
Nc1c2c(nc3c1C(c1cccc([N+](=O)[O-])c1)n1c(=O)c4ccccc4c(=O)n1-3)CCCC2 (centres undefined)	140	> 100000	
Nc1c2c(nc3c1C(c1ccc(F)cc1)n1c(=O)c4ccccc4c(=O)n1-3)CCCC2 (centres undefined)	69	> 100000	viability at 24 h, 1 µM (in vitro [2]): 91.2%; viability at 24 h, 5 µM (in vitro [3]): 87.5%; viability at 24 h, 10 µM (in vitro [4]): 83.3%; viability at 24 h, 25 µM (in vitro [5]): 80%; viability at 24 h, 50 µM (in vitro [6]): 75.9%; viability at 24 h, 100 µM (in vitro [7]): 71.4%; viability at 24 h, 300 µM (in vitro [8]): 66.4%
Nc1c2c(nc3c1C(c1ccc(Br)cc1)n1c(=O)c4ccccc4c(=O)n1-3)CCCC2 (centres undefined)	80	> 100000	viability at 24 h, 1 µM (in vitro [2]): 99.8%; viability at 24 h, 5 µM (in vitro [3]): 98.3%; viability at 24 h, 10 µM (in vitro [4]): 97.6%; viability at 24 h, 25 µM (in vitro [5]): 96.4%; viability at 24 h, 50 µM (in vitro [6]): 95.7%; viability at 24 h, 100 µM (in vitro [7]): 92.8%; viability at 24 h, 300 µM (in vitro [8]): 90%
Nc1c2c(nc3c1C(c1ccc(Cl)cc1)n1c(=O)c4ccccc4c(=O)n1-3)CCCC2 (centres undefined)	60	96200	viability at 24 h, 1 µM (in vitro [2]): 98.6%; viability at 24 h, 5 µM (in vitro [3]): 96.2%; viability at 24 h, 10 µM (in vitro [4]): 95.1%; viability at 24 h, 25 µM (in vitro [5]): 94.4%; viability at 24 h, 50 µM (in vitro [6]): 92.4%; viability at 24 h, 100 µM (in vitro [7]): 91.3%; viability at 24 h, 300 µM (in vitro [8]): 89.3%
Cc1ccc(C2c3c(nc4c(c3N)CCCC4)-n3c(=O)c4ccccc4c(=O)n32)cc1 (centres undefined)	100	> 100000	
CCCCCC1c2c(nc3c(c2N)CCCC3)-n2c(=O)c3ccccc3c(=O)n21 (centres undefined)	612	> 100000	
CCCC1c2c(nc3c(c2N)CCCC3)-n2c(=O)c3ccccc3c(=O)n21 (centres undefined)	1630	> 100000	
Nc1c2c(nc3c1C(c1cccc(F)c1)n1c(=O)c4ccccc4c(=O)n1-3)CCCC2 (centres undefined)	23	37200	Ratio IC50 [9]: 15; viability at 24 h, 1 µM (in vitro [2]): 93.5%; viability at 24 h, 5 µM (in vitro [3]): 90.9%; viability at 24 h, 10 µM (in vitro [4]): 86.1%; viability at 24 h, 25 µM (in vitro [5]): 82.7%; viability at 24 h, 50 µM (in vitro [6]): 78.8%; viability at 24 h, 100 µM (in vitro [7]): 74.8%; viability at 24 h, 300 µM (in vitro [8]): 68.2%
Nc1c2c(nc3c1C(c1cccc(Br)c1)n1c(=O)c4ccccc4c(=O)n1-3)CCCC2 (centres undefined)	271	> 100000	
Nc1c2c(nc3c1C(c1ccccc1)n1c(=O)c4ccccc4c(=O)n1-3)CCCC2 (centres undefined)	614	> 100000	
Nc1c2c(nc3c1C(c1cccc(O)c1)n1c(=O)c4ccccc4c(=O)n1-3)CCCC2 (centres undefined)	160	> 100000	
COc1ccccc1C1c2c(nc3c(c2N)CCCC3)-n2c(=O)c3ccccc3c(=O)n21 (centres undefined)	49	93300	Ki (Acetylcholinesterase [10]): 12.6 nM; Activity (PC-12 [11]): Active; Activity (PC-12 [12]): inactive; Activity (PC-12 [13]): inactive; Activity (PC-12 [14]): Non-Toxic; viability at 24 h, 1 µM (in vitro [2]): 96.3%; viability at 24 h, 5 µM (in vitro [3]): 95%; viability at 24 h, 10 µM (in vitro [4]): 95.2%; viability at 24 h, 25 µM (in vitro [5]): 90.2%; viability at 24 h, 50 µM (in vitro [6]): 87.3%; viability at 24 h, 100 µM (in vitro [7]): 86.4%; viability at 24 h, 300 µM (in vitro [8]): 83%
COc1cc(OC)cc(C2c3c(nc4c(c3N)CCCC4)-n3c(=O)c4ccccc4c(=O)n32)c1 (centres undefined)	3370	> 100000	
Nc1c2c(nc3c1C(c1ccccc1Cl)n1c(=O)c4ccccc4c(=O)n1-3)CCCC2 (centres undefined)	592	> 100000	
Cc1cccc(C2c3c(nc4c(c3N)CCCC4)-n3c(=O)c4ccccc4c(=O)n32)c1 (centres undefined)	467	> 100000	
CC1c2c(nc3c(c2N)CCCC3)-n2c(=O)c3ccccc3c(=O)n21 (centres undefined)	2150	> 100000	
Nc1c2c(nc3c1C(c1ccccc1[N+](=O)[O-])n1c(=O)c4ccccc4c(=O)n1-3)CCCC2 (centres undefined)	280	> 100000	
Nc1c2c(nc3c1C(c1ccccc1F)n1c(=O)c4ccccc4c(=O)n1-3)CCCC2 (centres undefined)	618	> 100000	
Cc1ccccc1C1c2c(nc3c(c2N)CCCC3)-n2c(=O)c3ccccc3c(=O)n21 (centres undefined)	193	> 100000	
Nc1c2c(nc3c1C(c1ccc([N+](=O)[O-])cc1)n1c(=O)c4ccccc4c(=O)n1-3)CCCC2 (centres undefined)	310	> 100000	
O=c1c(O)c(-c2ccc(O)c(O)c2)oc2cc(O)cc(O)c12			Activity (PC-12 [12]): Active
Nc1c2c(nc3c1C(c1ccccc1Br)n1c(=O)c4ccccc4c(=O)n1-3)CCCC2 (centres undefined)	599	> 100000	
